Measured values from patent US12351634B2, “Use of cilengitide for ameliorating cardiac fibrosis occurring in response to myocardial infarction” (priority 2018, dated 2025).

Legend:
[1] = tested on: mice subjected to MI via a complete LAD ligation; assay: Myocardial infarction by LAD ligation, cilengitide vs vehicle; assay type: in vivo, mouse
Experimental: Male C57BL/6J mice (Janvier labs) or PW1-reporter (PW1^nLacZ) mice received Cilengitide at 10 mg/kg/day (Adooq bioscience, ref: A12372) or vehicle i.p. for 14 days. LAD surgery was performed 7 days after starting cilengitide or vehicle administration. Mice were divided in 4 groups: MI-CIL (Cilengitide), MI-Veh (vehicle), Ctrl-CIL and Ctrl-Veh. At Day 14, animals were euthanatized and hearts were carefully collected, incubated for 2 h at 4° C. in 4% Formaldehyde solution (Ted Pella) then 24 h in 30% sucrose/PBS solution before OCT embedding and frozen in liquid nitrogen vapours. Echocardiographic measurements were taken at days 0 and 7 to assess cardiac function.
When comparing more than 2 groups, quantitative data were analyzed using one-way ANOVA and pair wise comparisons with Tukey's test for multiple comparisons. The Mann Whitney U test was used for comparing continuous variables between 2 groups. A log rank (Mantel-Cox) test was used to compare survival between groups. P-values <0.05 were considered significant.
Mice were pre-treated for 7 days with cilengitide or vehicle and were then subjected to MI via a complete LAD ligation. The mice were further daily treated with cilengitide or vehicle for additional 7 days before final evaluation of cardiac function and remodeling (FIG. 1a).

[2] = tested on: cardiac PW1+ cells in PW1nLacZ-reporter mouse post-MI hearts; assay: Short-term lineage tracing of cardiac PW1+ cells in post-MI heart sections; assay type: in vivo; settings: cardiac sections of post-MI (7 days) hearts, vs vehicle
Experimental: Male 8 weeks-old C57BL/6 or PW1-reporter (PW1^nLacZ) mice were anesthetized in an induction chamber with 2% isoflurane mixed with 1.0 L/min 100% 02 and placed on a supine position on a heating pad to maintain body temperature. The mice were intubated with endotracheal tube and then connected to a rodent ventilator (180 breaths/min and a tidal volume of 200 μl). During surgical procedure anesthesia is maintained at 1.5-2% isoflurane with O2. The chest was accessed from the left side through the intercostal space and the pericardium incised. The left anterior descending coronary artery (LAD) was exposed and encircled with a 8.0 prolene suture at the apex of the left ventricle. The suture was briefly snared to confirm the ligation by blanching the arterial region. Mice were analyzed 7 days after LAD permanent ligation.
Male C57BL/6J mice (Janvier labs) or PW1-reporter (PW1^nLacZ) mice received Cilengitide at 10 mg/kg/day (Adooq bioscience, ref: A12372) or vehicle i.p. for 14 days. LAD surgery was performed 7 days after starting cilengitide or vehicle administration. Mice were divided in 4 groups: MI-CIL (Cilengitide), MI-Veh (vehicle), Ctrl-CIL and Ctrl-Veh. […]

[3] = tested on: FACS-isolated cardiac PW1+ cells; assay: Pharmacological inhibition of PW1+ cells in vitro, Q-PCR on fibrosis markers; assay type: cell-based, mouse; settings: cilengitide 300 nM, 1000 nM vs vehicle, treated for 48 h
Experimental: Animals were injected with heparin (100 UI/25 g) before euthanasia. The right atrium was carefully nicked with surgical scissors and the heart was perfused with 10 mL of PBS (Gibco) through the right ventricle to remove the blood. After collecting the heart, the atria were trimmed away and the ventricles were finely sliced (0.5-1 mm^3). Cardiac cells were dissociated at 37° C. for 30 min by enzymatic digestion with 480 U/mL collagenase II (Worthington) in DPBS (GIBCO). The digestion was stopped with DMEM (Life Technologies) supplemented into 10% FBS (Sigma) and 1% penicillin/streptomycin (P/S; Life Technologies) and the cell suspension was filtered through 100 μm Falcon cell strainer before centrifugation at 416 g for 10 min at 4° C. The cell pellet was re-suspended in 500 μL of Red Blood Cell Lysing (RBCL) Buffer to lyse red blood cells at RT for 30 sec. DPBS was added before 10 min centrifugation in same conditions as above. The cell pellet was then re-suspended in 300 μL of HBSS (Gibco) containing 1% FBS (HBSS-1% FBS) to perform immunostaining for 45 min on ice in dark. The list of antibodies used is reported in supplemental table 1. After incubation, HBSS-1% FBS was added and cells centrifuged at 416 g for 10 min at 4° C. to perform PW1+ cells staining. For this, 300 μL of HBSS-1% FBS containing 60 μM of 5-Dodecanoylaminofluorescein Di-β-D-Galactopyranoside (C12FDG, ThermoFisher Scientific) a substrate for β-gal detection by flow cytometry was added on cells then incubated in dark at 37° C. for 1 h under constant agitation. Reaction was stopped by the addition of HBSS-1% FBS. After cell centrifugation, the pellet was re-suspended in 200 μL of HBSS-1% FBS, the viability dye propidium iodide (Sigma) was added and the samples were filtered through a 50 μm Filcon (BD bioscience) just before the analysis.
FACS sorted PW1^+ or PW1^− cells were plated at the density of 25 000 cell per cm^2 in culture plates coated with attachment factor (ThermoFisher Scientific). Cells were left to adhere overnight with 0.5 mL of growth medium (DMEM 10% FBS 1% P/S). The culture medium was changed the day after. At day 5, culture media was changed and supplemented with 0, 300 nM, or 1 μM of cilengitide. At day 6, medium was removed, and cells were washed twice with PBS. Cells were then lysed and RNA extracted followed by an RT-PCR. A Q-PCR was finally performed on selected fibrosis markers.
To test this hypothesis, we first investigated whether CD51 pharmacological inhibition affects the expression of profibrotic genes in freshly FACS-isolated cardiac PW1^+ cells. These cells were seeded and cultured for 4 days and then treated for 48 h with growing concentrations of cilengitide or vehicle. […]

[4] = tested on: integrin αV, including αVβ1, αVβ3 and αVβ5; settings: cited from earlier work
[5] = sham animals (no MI), cilengitide 10 mg/kg/day i.p., data not shown

Question: What does the source list for `CC(C)[C@H]1C(=O)N[C@@H](CCCN=C(N)N)C(=O)NCC(=O)N[C@@H](CC(=O)O)C(=O)N[C@H](Cc2ccccc2)C(=O)N1C` [cilengitide, 2-[(2S,5R,8S,11S)-5-benzyl-11-{3-[(diaminomethylidene)amino]propyl}-7-methyl-3,6,9,12,15-pentaoxo-8-(propan-2-yl)-1,4,7,10,13-pentaazacyclopentadecan-2-yl]acetic acid]?
Answer: survival ([1]; 7 days after MI, cilengitide 10 mg/kg/day i.p. for 14 days, started 7 days before LAD ligation, vs vehicle, p<0.05 log-rank): significant improvement; cardiac function as measured by left ventricular ejection fraction ([1]; 7 days after MI, cilengitide 10 mg/kg/day i.p., vs vehicle): significant increase; infarct size ([1]; 7 days after MI, masson trichrome, digital image quantification, 10 mg/kg/day i.p., vehicle 56.8±14.9%, p=0.0008): 38.8±7.9%; interstitial fibrosis measured in the remote myocardial area ([1]; 7 days after MI, picrosirius red, 10 mg/kg/day i.p., vehicle 36.8±13.1%, p<0.0001): 15.9±10.4%; cardiac rupture (adverse outcome) ([1]; post-MI mice under cilengitide treatment): did not observe; cardiac fibrosis in sham animals [1, 5]: not associated with any changes; cardiac function in sham animals [1, 5]: not associated with any changes; survival in sham animals [1, 5]: not associated with any changes; number of β-gal+ cells that did not express vimentin ([2]; p<0.001): significant increase; proportion of cells co-expressing β-gal and vimentin ([2]; p<0.05): significant reduction; Colla1 expression [3]: not affected; aSma (or Acta2) expression [3]: significant down-regulation; mmp2 expression [3]: significant down-regulation; tgfrb1 expression [3]: significant down-regulation; inhibiting activity against the integrin αV [4]: strong inhibiting activity
